One data set has as its system HCT-116. Kind of data set: MTT cell viability assay, HCT-116. It counts as cell-based, human. As to conditions: mean ± SD, n = 3. On the procedure: (§1) All new tetrahydroquinoline derivatives were assessed for cytotoxicity on a broad panel of cancer and normal cell lines, using the MTT assay. The half-inhibitory growth inhibitory concentration (IC50) values of each compound were calculated after 72 h of treatment and presented in Table 1. […] In this assay, the IC50 value of 5-FU and ETP was recorded as a positive control.
(§2) Non-small cell lung cancer cells A549 (CCL-185), breast cancer cells MCF-7 ([…]), hepatocarcinoma cells HepG2 ([…]), normal kidney cells HEK293 (CRL-1573), and osteosarcoma cells U-2 OS (HTB-96) were obtained from the American Type Culture Collection. HCT-116 cell line was kindly provided by prof. Bert Vogelstein (Johns Hopkins University, Howard Hughes Medical Institute, USA). The obtained A549 and MCF-7 cells were cultured in RPMI-1640 medium, HepG2 cells in Minimum Essential Medium Eagle medium, HEK-293 cells in Dulbecco’s Modified Eagle’s medium, and U-2 OS and HCT-116 cells in McCoy’s […] medium. All culture media were supplemented with 10% fetal bovine serum, 2 mM L-glutamine, and antibiotics (penicillin 62.6 µg/ml and streptomycin 40 µg/ml; Sigma-Aldrich). Both cancer and normal cells were cultured at 37 °C under a humidified atmosphere with 5% or 10% CO2 and routinely screened for Mycoplasma contamination. All materials and reagents were obtained from Corning unless stated otherwise.
(§3) The cytotoxic effect of the synthesized compounds was assessed by the MTT (4,5-dimethylthiazol-2-yl-2,5-diphenyltetrazoliumbromide; Sigma-Aldrich) assay. Briefly, the cells were seeded into 96-well transparent flat-bottom plates and allowed to attach overnight. On the next day, the cells were treated with compounds in the range of 0–50 µM for 72 h. Dimethyl sulfoxide (DMSO; Merck) and 5-fluorouracil (5-FU; Sigma-Aldrich) were used as a reference. After exposure to the compounds, 20 μl of the MTT solution at a concentration of 4 mg/ml was added to each well, and the plates were incubated again for 2–3 h at 37 °C. Next, the media in the wells was replaced with 100 μl DMSO to solubilize the formazan crystals. The absorbance was measured at 540 nm using an ASYS UVM340 microplate reader (Biochrom Ltd.). The IC50 value of the compounds was calculated using GraphPad Prism 9 software, based on the curves plotted with survival as a function of dose, averaged from three independent experiments.

A further data set concerns HepG2. Kind of data set: MTT cell viability assay, HepG2. Format: cell-based. As to conditions: mean ± SD, n = 3. The method, then: as §1, §2, §3
(Tetrazolium assays rely on reduction of a dye to a coloured formazan, in cell work by metabolically active cells.)

Data set [1] concerns tested cell lines (HCT-116, A549, MCF-7, HepG2, Hela, HEK293). Kind of data set: MTT assay, broad panel of cancer and normal cell lines. It counts as cell-based. As to conditions: range of 0–50 µM, 72 h. The method, then: as §1, §3
A further data set has as its system A549. Kind of data set: MTT cell viability assay, A549. It counts as cell-based, human. As to conditions: mean ± SD, n = 3. On the procedure: as §1, §2, §3
Another data set concerns Hela. Kind of data set: MTT cell viability assay, Hela. As to conditions: 72 h, mean ± SD, n = 3. It counts as cell-based. On the procedure:
as §1, §3

The next data set deals with HEK293. Kind of data set: MTT cell viability assay, HEK293 normal kidney cells. Format: cell-based, human. As to conditions: for IC50: MTT, 72 h, normal kidney cells, mean ± SD, n = 3. On the procedure: as §1, §2, §3
In a further data set the test system is MCF-7. Kind of data set: MTT cell viability assay, MCF-7. It counts as cell-based, human. As to conditions: mean ± SD, n = 3. On the procedure: as §1, §2, §3

Consider `O=c1[nH]c2c(c(-c3ccccc3)c1Cc1ccc(-c3ccccc3)cc1)CCCC2` [Compound 4c, 4-phenyl-3-[(4-phenylphenyl)methyl]-5,6,7,8-tetrahydro-1H-quinolin-2-one], for which the IC50 – broadly, the midpoint of a concentration-inhibition curve – was above 50 µM in the data set on HCT-116 (Homo sapiens, HCT-116, 72 h); above 50 µM with HepG2 (Homo sapiens, HepG2, 72 h); above 50 µM with A549 (Homo sapiens, A549, 72 h); above 50 µM with Hela (Homo sapiens, HeLa); above 50 µM in the data set with HEK293 (Homo sapiens, HEK293); above 50 µM with MCF-7 (Homo sapiens, MCF7, 72 h). Moreover, the “effect on the tested cell lines” value in data set [1] was “did not have any effect”.

On to `O=c1[nH]c2c(c(-c3ccccc3)c1Cc1ccc(C(F)(F)F)cc1)CCCC2` [Compound 4e, 4-phenyl-3-[[4-(trifluoromethyl)phenyl]methyl]-5,6,7,8-tetrahydro-1H-quinolin-2-one], for which the IC50 in the data set with HCT-116 (Homo sapiens, HCT-116, 72 h) is above 50 µM; in the data set with HepG2 (Homo sapiens, HepG2, 72 h) it was above 50 µM; in the data set on A549 (Homo sapiens, A549, 72 h), above 50 µM; in the data set with Hela (Homo sapiens, HeLa), above 50 µM; in the data set with HEK293 (Homo sapiens, HEK293), above 50 µM; with MCF-7 (Homo sapiens, MCF7, 72 h), above 50 µM. For the same molecule, the “effect on the tested cell lines” value in data set [1] is listed as “did not have any effect”.

With `O=c1[nH]c2c(c(-c3ccccc3)c1Cc1ccc3ccccc3c1)CCCC2` [Compound 4b, 3-(2-naphthylmethyl)-4-phenyl-5,6,7,8-tetrahydro-1H-quinolin-2-one], the IC50 in the data set on HCT-116 (Homo sapiens, HCT-116, 72 h) was above 50 µM; with HepG2 (Homo sapiens, HepG2, 72 h) it was above 50 µM; with A549 (Homo sapiens, A549, 72 h) it was above 50 µM; in the data set on Hela (Homo sapiens, HeLa), above 50 µM; in the data set on HEK293 (Homo sapiens, HEK293), above 50 µM; in the data set on MCF-7 (Homo sapiens, MCF7, 72 h), above 50 µM. The “effect on the tested cell lines” value in data set [1] is listed as “did not have any effect”.

`Clc1nc2c(c(-c3ccccc3)c1Cc1cccc3ccccc13)CCCC2` [Compound 5, 2-chloro-3-(1-naphthylmethyl)-4-phenyl-5,6,7,8-tetrahydroquinoline]: the IC50 in the data set on HCT-116 (72 h) was 13.1 ± 0.96 µM; in the data set with HCT-116 (Homo sapiens, HCT-116, 72 h) it was around 13 µM; in the data set on HepG2 (Homo sapiens, HepG2, 72 h) it was above 50 µM; in the data set with A549 (Homo sapiens, A549, 72 h) it was above 50 µM; with Hela (Homo sapiens, HeLa), above 50 µM; in the data set with HEK293 (Homo sapiens, HEK293), above 50 µM. In the data set with MCF-7 (Homo sapiens, MCF7, 72 h), the IC50 was above 50 µM.

Turning to `COc1nc2c(c(-c3ccccc3)c1Cc1cccc3ccccc13)CCCC2` [Compound 6, 2-methoxy-3-(1-naphthylmethyl)-4-phenyl-5,6,7,8-tetrahydroquinoline], the IC50 was 15.6 ± 1.29 µM in the data set with HCT-116 (72 h); around 13 µM in the data set on HCT-116 (Homo sapiens, HCT-116, 72 h); above 50 µM with HepG2 (Homo sapiens, HepG2, 72 h); 40.2 ± 0.94 µM with A549 (Homo sapiens, A549, 72 h); 50 µM with Hela (Homo sapiens, HeLa); above 50 µM with HEK293 (Homo sapiens, HEK293). Further, in the data set on MCF-7 (Homo sapiens, MCF7, 72 h), the IC50 was above 50 µM. For the same molecule, the “suppressive effect on human normal HEK293 kidney cells” value in the data set with HEK293 (tested concentrations, compared to A549 and HCT-116) is recorded as “almost no suppressive effect”.

In the case of `O=c1[nH]cc(F)c(=O)[nH]1` [Compound 5-FU, 5-fluorouracil, reference compound], the concentration for half-maximal inhibition (IC50) worked out at 5.78 ± 0.38 µM in the data set with HCT-116 (Homo sapiens, HCT-116, 72 h); 13.1 ± 0.32 µM in the data set with HepG2 (Homo sapiens, HepG2, 72 h); 11.1 ± 1.53 µM in the data set with Hela (Homo sapiens, HeLa); 16.8 ± 0.34 µM in the data set with HEK293 (Homo sapiens, HEK293); 8.41 ± 0.98 µM in the data set on MCF-7 (Homo sapiens, MCF7, 72 h).

For the molecule `O=c1[nH]c2c(c(-c3ccccc3)c1Cc1cccc(-c3ccccc3)c1)CCCC2` [Compound 4d, 4-phenyl-3-[(3-phenylphenyl)methyl]-5,6,7,8-tetrahydro-1H-quinolin-2-one], the IC50 is above 50 µM in the data set with HCT-116 (Homo sapiens, HCT-116, 72 h); above 50 µM in the data set on HepG2 (Homo sapiens, HepG2, 72 h); above 50 µM in the data set on A549 (Homo sapiens, A549, 72 h); above 50 µM in the data set on Hela (Homo sapiens, HeLa); above 50 µM in the data set with HEK293 (Homo sapiens, HEK293); above 50 µM in the data set on MCF-7 (Homo sapiens, MCF7, 72 h). Further, in data set [1], the “effect on the tested cell lines” value is “did not have any effect”.

As for `COc1cc([C@@H]2c3cc4c(cc3[C@@H](O[C@@H]3O[C@@H]5CO[C@@H](C)O[C@H]5[C@H](O)[C@H]3O)[C@H]3COC(=O)[C@H]23)OCO4)cc(OC)c1O` [ETP, reference compound], the IC50 in the data set on HCT-116 (72 h) is 0.39 ± 0.01 µM; in the data set on HepG2 (72 h), 5.01 ± 0.22 µM; with A549 (72 h), 0.54 ± 0.21 µM; in the data set on Hela it was 3.4 ± 0.51 µM; in the data set on HEK293 it was 1.91 ± 0.97 µM; in the data set with MCF-7 (72 h), 0.83 ± 0.15 µM.

(Values after PMC9646836, “Tetrahydroquinolinone derivatives exert antiproliferative effect on lung cancer cells through apoptosis induction” (Scientific Reports, 2022).)
